Experimental data reported in patent US8324284B2, “Migrastatin analogs and uses thereof” (Sloan-Kettering Institute for Cancer Research, priority 2003, dated 2012).

Columns and labels:
[1] = system: 4T1 tumor lung metastasis; experiment: 4T1 tumor lung metastasis in syngeneic mice; format: in vivo, mouse; settings: mean and standard deviation
Description: (§1) Female BALB/c mice (6-8 week old) were purchased from the Jackson Laboratory (Bar Harbor, Me.). All mice were housed at the Weill Medical College of Cornell University Animal Facilities in accordance with the Principles of Animal Care (NIH publication no. 85-23, revised 1985). 4T1 tumor cells (1×10^5) were injected subcutaneously into the abdominal mammary gland area of mice in 0.1 ml of a single-cell suspension in phosphate buffered saline (PBS) on Day 0. The dosage of tumor implantation was empirically determined to give rise to tumor of ˜10 mm in diameter in untreated wild type mice in 21-23 days. On Day 7, when the tumors averaged in size ˜4-5 mm in diameter, migrastatin analogs or control PBS saline were given every day by intraperitoneal injection at 10 mg/kg or 20 mg/kg per mouse until Day 25. On Day 28, the mice were sacrificed. This regiment of migrastatin analogs was well tolerated with no signs of overt toxicity. Every group included five mice. Primary tumors were measured using electronic calipers on the day when the mice were sacrificed. Tumor size was the square root of the product of two perpendicular diameters. Numbers of metastatic 4T1 cells in lung were determined by the clonogenic assay.^63 In brief, lungs were removed from each mouse on Day 28, finely minced and digested in 5 ml of enzyme cocktail containing 1×PBS and 1 mg/ml collagenase type IV for 2 hours at 37° C. on a platform rocker. After incubation, samples were filtered through 70 uM nylon cell strainers and washed twice with PBS. Resulting cells were suspended and plated serially diluted in 10 cm tissue culture dishes in medium RPMI1640 containing 60 uM thioguanine for clonogenic growth. 6-Thioguanine-resistant tumor cells formed foci after 14 days, at which time they were fixed with methanol and stained with 0.03% methylene blue for counting.
Treatment 4T1 tumor lung metastasis in syngeneic mice with migrastatin analogs (See, FIG. 4). 4T1 tumor cells (10^5) were injected s.c. in the abdominal mammary gland with 0.1 ml of a single-cell suspension. Macroketone or macrolactam at 10 mg/kg or 20 mg/kg was given i.p. on Day 7 when the tumor size was about 5 mm in diameter, and every day until Day 25. On Day 28, the mice were sacrificed. Each group comprised five mice. Lung metastasis was measured by the 6-thiogunine clonogenic assay. The mean and standard deviation are presented. In the control group (daily PBS injection), there were 61300±18900 colonies.

4T1 tumors = experiment: 4T1 primary tumor growth in mice; format: in vivo, mouse; settings: 10 mg/kg i.p. daily Day 7-25, final tumor size Day 28
Description: as §1, with “This regiment of migrastatin analogs was well tolerated with no signs of overt toxicity. Every group included five mice.” left out, “Tumor size was the square root of the product of two perpendicular diameters.” left out, “After incubation, samples were filtered through 70 uM nylon cell strainers and washed twice with PBS. Resulting cells were suspended and plated serially diluted in 10 cm tissue culture dishes in medium RPMI1640 containing 60 uM thioguanine for clonogenic growth. 6-Thioguanine-resistant tumor cells formed foci after 14 days, at which time they were fixed with methanol and stained with 0.03% methylene blue for counting.” left out
Effect of migrastatin analogs on 4T1 tumor cell growth (See, FIG. 5). […] On Day 28, primary tumors were measured using electronic calipers. […]

[2] = Metabolic stability in mouse plasma; format: in vitro ADME; settings: mouse plasma/PBS, 37° C.; for stability (t1/2, mouse plasma), in words: 60 min of incubation, stable = intensity of HPLC signal unchanged
Description: Mouse Plasma Stability Studies (Table 5): HPLC conditions: The sample is injected and separated using an Inertsil ODS3 6u 3×150 mm column with a mobile phase of MeCN and water (50% for migrastatin) at a flow of 0.4 mL/min, monitored at 220 nm at 0.02 AUFS (the retention time for migrastatin is ca. 4 min, the identity of this peak was confirmed by mass spectral analysis). Incubation and sample preparation conditions: A solution (ca. 30 mM) of chemical compound (Table 5) in DMSO is prepared. 2 μL of the solution is added to a mixture containing 200 μL of mouse plasma and 800 μL of PBS. The resulting solution is put into a water bath at 37° C., and 100 μL of sample is withdrawn at 10, 20, 30, 45, and 60 min. The precipitate is removed by centrifugation and 20 μL of the supernatant is injected onto the HPLC.

[3] = system: 4T1 mouse breast tumor cells; experiment: Wound-healing assay with 4T1 cells; format: cell-based; settings: with serum, 200 μM, overnight
Text: In the wound healing assay, standard scratches (i.e., wounds) were made through a confluent 4T1 cell layer. In the absence of serum, cells would not migrate across the empty space created by application of the scratch. Upon addition of serum containing migration-enabling factors, migration of 4T1 cells across the scratch was induced. Exposure to these cells to inventive compounds allowed the evaluation of the cell migration inhibitory activity of these compounds.
Wound-Healing Assay (See FIG. 6). 4T1 mouse breast tumor cells in RPMI-1640 medium containing 10% fetal bovine serum (FBS) were seeded into wells of 24-multiwell plates (Becton-Dickinson). After cells grew to confluence, wounds were made with sterile pipette tips. Cells were washed with Phosphate Buffered Saline (PBS) and refreshed with growth medium containing different concentrations of chemical compounds. After overnight incubation at 37° C., cells were fixed and photographed.

4T1 tumor cells = experiment: Cell proliferation assay (MTT); settings: up to 20 μM, 48 h
Description: Cell Proliferation Assay: 4×10^4 of 4T1 tumor cells in RPMI-1640 medium containing 10% FBS were seeded into wells of 96-multiwell plates (Becton-Dickinson) in the presence or absence of chemical compounds and then incubated at 37° C. for 48 h. An MTT kit (Cell Proliferation Kit I, Roche) (a colorimetric assay) was used to quantify cell proliferation and viability. The number of living cells, thus the total metabolic activity, directly correlates to the amount of purple formazan crystals formed (monitored by the absorbance).

HUVEC = experiment: Tube formation assay; format: cell-based, human; settings: minimal concentration causing definite disturbance of tube network; 16-18 h; tested 200, 100, 50, 25, 10 μM
Description: A protocol was designed based on the instructions from the provider (BD Bioscience, San Jose, Calif.). Briefly, wells of a 48 well culture dish were covert with 150 μL matrigel and the matrigel was gelatinized for 30 min at 37° C. A 80-90% confluent HUVEC (BD Bioscience, San Jose, Calif.) culture was trypsin treated, the detached cells were collected by centrifugation and resuspended in EGM-2 media (BD Bioscience, San Jose, Calif.). Cell concentration was adjusted to 100.000 cells/mL. 400 μL of the cell suspension were filled in the matrigel coated wells, and a solution of the inhibitor was added to the intended final concentration. The plates were incubated at 37° C. with 5% CO2 for 16-18 h. Media was removed, and the matrigel surface was washed twice with 500 μL PBS before cells were labeled with 250 μL […] Calcein AM (Pierce, Rockford, Ill.) in PBS for 30 min at 37° C. After two additional washing steps (500 μL PBS) cells were visualized under an inverted microscope. Fluorescence was excited at 488 nm and recorded at 538 nm. The minimum effect concentration was defined as the minimal inhibitor concentration that caused a definite disturbance of the complexity of the formed tube network.

KYSE-520 cells = experiment: Wound healing (scratch) assay; format: cell-based; settings: 28 to 30 h, tested 200, 100, 50, 25, 10 μM
Description: The wound healing assay was performed based on the method described by Nakae et al. (Nakae et al., J. Antibiotics (2000), 53, 1130-1136). Briefly, adherent cells were grown in a suitable media to confluence (e.g. KYSE-520 cells in RPMI-1640 with 10% FBS). Cells were starved for 24 h in serum free media. A scratch (ca. 0.5 mm) was applied and the cell layer was washed twice with PBS after removal of the media. Fresh, serum free media with the test compound at the desired concentration was added and the cells were incubated for 28 to 30 h at 37° C., 5% CO2. The scratch size was compared to that observed for cells exposed to 100 μM Migrastatin. Test compounds associated with a scratch size equal to or larger than that observed for cells exposed to 100 μM Migrastatin were deemed to have cell migration inhibitory activity at least equal to Migrastatin.

cell migration = experiment: Chamber cell migration assay (preliminary); format: cell-based; settings: 36 h, tested 200, 100, 50, 25, 10 μM
Description: Cells were grown in an appropriate media to 70 to 80% confluence and incubated in serum and growth factor free media for 24 h. Cells were detached by trypsin treatment, collected by centrifugation and resuspended in serum free media to a final concentration of 150,000 cells/mL. 400 μL of the cell suspension were loaded into a fibronectin coated insert for 24 well multidishes. 750 μL fully supplemented media were applied to the compartment under the insert. To both chambers the inhibitor was added at the intended concentration and the plates were incubated for 36 h at 37° C., 5% CO2. […] The resulting CyQuant assay solution was transferred to the cavities of a 96 well microtiter plate and the fluorescence signal was recorded in an appropriate reader. The CyQuant dye forms a highly fluorescent complex with DNA, thus the fluorescence signal is proportional to the number of cells that migrated through the membrane in the presence of the test compound (N^inh). […] The positive control fluorescent reading correlates with the number of cells that migrate through the membrane in the absence of inhibitor (N^+). […] The negative control fluorescent reading correlates with the number of cells that migrate through the membrane through non-directed processes (N^−). The anti-migratory effect of a test compound is determined by the ratio (N^inh−N^−)/(N^+−N^−).

SMILES | lung metastasis, colonies (6-thioguanine clonogenic assay) ([1]; 10 mg/kg i.p. daily Day 7-25, Day 28) [colonies] | lung metastasis, colonies (6-thioguanine clonogenic assay) ([1]; 20 mg/kg i.p. daily Day 7-25, Day 28) [colonies] | effect on tumor growth in mice (4T1 tumors) | stability (t1/2, mouse plasma) [2] [min] | stability (t1/2, mouse plasma), in words [2] | inhibition of 4T1 cell migration across the scratch [3] | cytotoxic or anti-proliferative effects on 4T1 cells (4T1 tumor cells) | Minimum effect concentration (HUVEC) [µM] | Minimum effect concentration (KYSE-520 cells) [µM] | IC50 (cell migration) [µM] | stability (t1/2, mouse plasma), in words ([2]; listed as migrastatin)
COC1C=CCCCCC(=O)CCC(C)=CC(C)C1O (stereo not shown) [macroketone (60), Macroketone] | 3875±2525 | 650±575 | minor effect on tumor growth |  |  |  |  |  |  |  | 
COC1C=CCCCCC(=O)OCC(C)=CC(C)C1O (stereo not shown) [macrolactone (48), Macrolactone] |  |  |  | <5 | hydrolyzed rapidly | almost completely inhibited cell migration across the scratch | did not have any cytotoxic or anti-proliferative effects up to 20 μM |  |  |  | 
CO[C@H]1/C=C/CC/C=C/C(=O)O[C@H]([C@H](C)C(=O)CCCC2CC(=O)NC(=O)C2)/C(C)=C\[C@@H](C)[C@@H]1O [migrastatin (1), Migrastatin] |  |  |  |  | stable^1 | not as great |  | 100 | 100 | 200 | completely inert toward lactone opening
